Laboratory results: patent US20230263825A1, “ANTI-CANCER ACTIVITY OF PERBORATE SALTS” (priority 2020, published 2023)
“Also recorded” adds a separate entry of the source.

Experiment: Toxicology in rats, oral, histopathology
Assay type: in vivo
Description: After 32 days, the rats were sacrificed and their organs were examined under a microscope.

## O.O.O.O.[Na+].[O-]B1OO1 [sodium perborate tetrahydrate]
rat, in vivo, po, 4 mg/kg
  KIDNEY Edema, No Exam: 0/10
  KIDNEY Notable or abnormal, %: 0%
  KIDNEY Notable or abnormal, No Exam: 0/10
  KIDNEY Within normal limits, %: 100%
  KIDNEY Within normal limits, No Exam: 10/10
  LIVER Fattening, %: 0%
  LIVER Fattening, No Exam: 0/10
  LIVER Infiltration, %: 0%
  LIVER Infiltration, No Exam: 0/10
  LIVER Notable or abnormal, %: 0%
  LIVER Notable or abnormal, No Exam: 0/10
  LIVER Within normal limits, %: 100%
  LIVER Within normal limits, No Exam: 10/10
  LUNG Lymphocytic infiltration, %: 0%
  LUNG Lymphocytic infiltration, No Exam: 0/10
  LUNG Notable or abnormal, %: 0%
  LUNG Notable or abnormal, No Exam: 0/10
  LUNG Pulmonary edema, %: 0%
  LUNG Pulmonary edema, No Exam: 0/10
  LUNG Within normal limits, %: 100%
  LUNG Within normal limits, No Exam: 10/10
  PANCREAS Notable or abnormal, %: 0%
  PANCREAS Notable or abnormal, No Exam: 0/10
  PANCREAS Within normal limits, %: 100%
  PANCREAS Within normal limits, No Exam: 10/10
  SPLEEN Notable or abnormal, %: 0%
  SPLEEN Notable or abnormal, No Exam: 0/10
  SPLEEN Within normal limits, %: 100%
  SPLEEN Within normal limits, No Exam: 10/10
  STOMACH Notable or abnormal, %: 0%
  STOMACH Notable or abnormal, No Exam: 0/10
  STOMACH Within normal limits, %: 100%
  STOMACH Within normal limits, No Exam: 10/10
rat, in vivo, po, 8 mg/kg/day
  HEART Notable or abnormal, %: 0%
  HEART Notable or abnormal, No Exam: 0/10
  HEART Within normal limits, %: 100%
  HEART Within normal limits, No Exam: 10/10
  INTESTINE, Large Notable or abnormal, %: 0%
  INTESTINE, Large Notable or abnormal, No Exam: 0/10
  INTESTINE, Large Within normal limits, %: 100%
  INTESTINE, Large Within normal limits, No Exam: 10/10
  INTESTINE, Small Enteritis, %: 10%
  INTESTINE, Small Enteritis, No Exam: 1/10
  INTESTINE, Small Notable or abnormal, %: 10%
  INTESTINE, Small Notable or abnormal, No Exam: 1/10
  INTESTINE, Small Within normal limits, %: 90%
  INTESTINE, Small Within normal limits, No Exam: 9/10
  KIDNEY Edema, %: 0%
  KIDNEY Edema, No Exam: 0/10
  KIDNEY Notable or abnormal, %: 0%
  KIDNEY Notable or abnormal, No Exam: 0/10
  KIDNEY Within normal limits, %: 100%
  KIDNEY Within normal limits, No Exam: 10/10
  LIVER Fattening, %: 0%
  LIVER Fattening, No Exam: 0/10
  LIVER Infiltration, %: 0%
  LIVER Infiltration, No Exam: 0/10
  LIVER Notable or abnormal, %: 0%
  LIVER Notable or abnormal, No Exam: 0/10
  LIVER Within normal limits, %: 100%
  LIVER Within normal limits, No Exam: 10/10
  LUNG Lymphocytic infiltration, %: 0%
  LUNG Lymphocytic infiltration, No Exam: 0/10
  LUNG Notable or abnormal, %: 0%
  LUNG Notable or abnormal, No Exam: 0/10
  LUNG Pulmonary edema, %: 0%
  LUNG Pulmonary edema, No Exam: 0/10
  LUNG Within normal limits, %: 100%
  LUNG Within normal limits, No Exam: 10/10
  PANCREAS Notable or abnormal, %: 0%
  PANCREAS Notable or abnormal, No Exam: 0/10
  PANCREAS Within normal limits, %: 100%
  PANCREAS Within normal limits, No Exam: 10/10
  SPLEEN Notable or abnormal, %: 0%
  SPLEEN Notable or abnormal, No Exam: 0/10
  SPLEEN Within normal limits, %: 100%
  SPLEEN Within normal limits, No Exam: 10/10
  STOMACH Notable or abnormal, %: 0%
  STOMACH Notable or abnormal, No Exam: 0/10
  STOMACH Within normal limits, %: 100%
  STOMACH Within normal limits, No Exam: 10/10
rats, oral 0.125 mg/kg/day to 8 mg/kg/day, 32 days
  histopathology overall: toxicity to healthy tissues / organ damage: no significant organ damage; also recorded: no significant toxicity to healthy tissues
